SMILES strings stand for the structures.

These results are taken from ChEMBL document CHEMBL1156532, “Model structure of the Na+/H+ exchanger 1 (NHE1): functional and clinical implications” (J Biol Chem, 2007).

The target of test [1] is T1, Na(+)/H(+) antiporter NhaA (Escherichia coli K-12, UniProt P13738).
T1 sequence (P13738 whole entry): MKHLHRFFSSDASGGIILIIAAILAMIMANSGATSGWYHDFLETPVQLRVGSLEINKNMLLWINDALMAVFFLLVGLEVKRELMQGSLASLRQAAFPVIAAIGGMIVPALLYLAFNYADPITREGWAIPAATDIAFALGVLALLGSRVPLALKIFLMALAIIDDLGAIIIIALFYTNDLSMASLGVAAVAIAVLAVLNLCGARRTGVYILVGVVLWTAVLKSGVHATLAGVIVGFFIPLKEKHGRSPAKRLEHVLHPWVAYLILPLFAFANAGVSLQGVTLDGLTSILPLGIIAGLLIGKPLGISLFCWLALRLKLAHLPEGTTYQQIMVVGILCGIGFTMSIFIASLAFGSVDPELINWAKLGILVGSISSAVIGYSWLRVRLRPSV
The test is described as follows: Antiporter activity in Escherichia coli K12 wild type EcNhaA assessed as effect on sodium chloride-induced pH changes by acridine orange fluorescence assay.

Test [2] deals with Na(+)/H(+) antiporter NhaA (Escherichia coli K-12, UniProt P13738, F71C). The test is described as follows: Antiporter activity in Escherichia coli K12 wild type EcNhaA F71C mutant assessed as effect on lithium chloride-induced pH changes by acridine orange fluorescence assay.
Sequence of Na(+)/H(+) antiporter NhaA (Escherichia coli K-12, UniProt P13738, F71C) (P13738 whole entry F71C): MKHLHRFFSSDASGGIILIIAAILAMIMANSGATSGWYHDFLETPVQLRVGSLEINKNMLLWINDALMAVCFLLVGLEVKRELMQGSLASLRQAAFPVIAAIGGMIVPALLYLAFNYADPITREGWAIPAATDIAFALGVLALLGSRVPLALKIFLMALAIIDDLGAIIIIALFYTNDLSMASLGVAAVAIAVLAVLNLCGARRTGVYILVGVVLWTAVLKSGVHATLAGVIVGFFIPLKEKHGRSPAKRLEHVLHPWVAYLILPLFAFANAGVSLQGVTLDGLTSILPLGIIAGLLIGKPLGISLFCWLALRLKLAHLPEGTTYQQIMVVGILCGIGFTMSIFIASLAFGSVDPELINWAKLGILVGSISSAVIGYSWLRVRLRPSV
The nature of test [3]: Antiporter activity in Escherichia coli K12 wild type EcNhaA F72C mutant assessed as effect on sodium chloride-induced pH changes by acridine orange fluorescence assay.
Test [4] has as its target T2, Na(+)/H(+) antiporter NhaA (Escherichia coli K-12, UniProt P13738, H225R). Put plainly: Antiporter activity in Escherichia coli K12 wild type EcNhaA H225R mutant assessed as effect on sodium chloride-induced pH changes by acridine orange fluorescence assay.
Test [5] is described as follows: Antiporter activity in Escherichia coli K12 wild type EcNhaA G76C mutant assessed as effect on sodium chloride-induced pH changes by acridine orange fluorescence assay.
Test [6] is described as follows: Antiporter activity in Escherichia coli K12 wild type EcNhaA W62C mutant assessed as effect on lithium chloride-induced pH changes by acridine orange fluorescence assay.
Test [7] can be described thus: Antiporter activity in Escherichia coli K12 wild type EcNhaA H225Q mutant assessed as effect on lithium chloride-induced pH changes by acridine orange fluorescence assay.
Test [8] in a line: Antiporter activity in Escherichia coli K12 wild type EcNhaA F72C mutant assessed as effect on lithium chloride-induced pH changes by acridine orange fluorescence assay.
Test [9] is described as follows: Antiporter activity in Escherichia coli K12 wild type EcNhaA F71C mutant assessed as effect on sodium chloride-induced pH changes by acridine orange fluorescence assay.
The target of test [10] is Na(+)/H(+) antiporter NhaA (Escherichia coli K-12, UniProt P13738, W62C). The test is described as follows: Antiporter activity in Escherichia coli K12 wild type EcNhaA W62C mutant assessed as effect on sodium chloride-induced pH changes by acridine orange fluorescence assay.
Sequence of Na(+)/H(+) antiporter NhaA (Escherichia coli K-12, UniProt P13738, W62C) (P13738 whole entry W62C): as the sequence (P13738 whole entry F71C) above, with W62C, C71F counted along it
Test [11] addresses Na(+)/H(+) antiporter NhaA (Escherichia coli K-12, UniProt P13738, H225Q). Put plainly: Antiporter activity in Escherichia coli K12 wild type EcNhaA H225Q mutant assessed as effect on sodium chloride-induced pH changes by acridine orange fluorescence assay.
The nature of test [12]: Antiporter activity in Escherichia coli K12 wild type EcNhaA G76C mutant assessed as effect on lithium chloride-induced pH changes by acridine orange fluorescence assay.
The target of test [13] is T2, Na(+)/H(+) antiporter NhaA. The test is described as follows: Antiporter activity in Escherichia coli K12 wild type EcNhaA H225R mutant assessed as effect on lithium chloride-induced pH changes by acridine orange fluorescence assay.
Test [14] is described as follows: Antiporter activity in Escherichia coli K12 wild type EcNhaA N64C mutant assessed as effect on sodium chloride-induced pH changes by acridine orange fluorescence assay.
Test [15] in a line: Antiporter activity in Escherichia coli K12 wild type EcNhaA N64C mutant assessed as effect on lithium chloride-induced pH changes by acridine orange fluorescence assay.
The target in test [16] is T1, Na(+)/H(+) antiporter NhaA. Put plainly: Antiporter activity in Escherichia coli K12 wild type EcNhaA assessed as effect on lithium chloride-induced pH changes by acridine orange fluorescence assay.

T2 sequence (P13738 whole entry H225R): as the sequence (P13738 whole entry F71C) above, with C71F, H225R counted along it
Sequence of Na(+)/H(+) antiporter NhaA (Escherichia coli K-12, UniProt P13738, H225Q) (P13738 whole entry H225Q): as the sequence (P13738 whole entry F71C) above, with C71F, H225Q counted along it

Regarding `NC1=Nc2cccc3cccc(c23)N1`, the IC50 (usually the concentration that gives 50% inhibition) turned out to be 1700 nM in [1]; 800 nM in test [2]; 1800 nM in test [3]; 1000 nM in test [4]; 1600 nM in test [5]; 1500 nM in test [6]. For the same compound, the IC50 in [7] worked out at 7800 nM; in test [8], 2600 nM; in test [9], 300 nM; in test [10], 1200 nM; in [11], 800 nM; in [12] it was 1200 nM. The IC50 in test [13] is 2300 nM; in test [14], 500 nM; in test [15], 17000 nM; in test [16] it was 2200 nM.
